Experimental data taken from article PMC12717099, “Peptidoglycan recruitment by a penicillin binding protein” (Nature Communications, 2025).

Tests used:
PBP5:ceftaroline complex = assay: 1D 1H STD NMR of SP2 with PBP5:ceftaroline; format: binding, Enterococcus faecium; settings: for STD amplification factor: ceftaroline-saturated PBP5, 2 s saturation
Description: (§1) Total saturation time for STD measurements was 2 s.
(§2) Overlapped peaks were completely excluded from the analysis.

PBP5-S422A = assay: 1D 1H STD NMR of SP2 with PBP5-S422A; format: binding, Enterococcus faecium; settings: for STD amplification factor, 2000: 2 s saturation
Description: as §1, §2

[1] = test system: E. faecium D344SRF pCWR624 (PBP5 plasmid); assay: MIC by broth microdilution, pCWR624; format: cell-based, Enterococcus faecium; settings: strain pCWR624; 37 °C, 20 h; n=3
Protocol: (§3) The synthetic genes were purchased from GeneWiz (South Plainfield, NJ). The ribosome binding site sequence AGGAGG (Shine-Dalgarno), and a string of five A’s followed by the sequence […], that corresponds to the first 15 bp found in pbp5 from E. faecium C68 were added upstream of the START codon. The terminator sequence […] was added downstream of the STOP codon. BamHI restriction sites were added to the flanking 5′ and 3′ ends. The synthetic genes were inserted into the vector pCWR624Δpbp5. This vector was derived from pCWR624[10], in which the pbp5 gene from D366 was excised by digestion with BamHI followed by re-ligation of the vector, allowing subsequent insertion of modified synthetic pbp5s into the BamHI site downstream of ftsWEfm and psr from E. faecium C68[10]. The synthetic genes were inserted in a BamHI site located downstream of psr. The proper orientation was confirmed by PCR amplification using the forward primer OR_pbp5_FOR_1 (5′-[…]-3′) and the reverse primer OR_pbp5_REV_1 (5′-[…]-3′). Plasmids were sequence verified for the specific binding site mutations. The resulting constructions were electroporated into the natural pbp5(-) mutant E. faecium D344SRF with a selection on brain heart infusion agar (BHI) plates containing kanamycin (1500 µg/ml).
(§4) E. faecium strains were streaked fresh from −80 °C stored glycerol stocks onto brain heart infusion (BHI) agar plates and incubated for 18 h at 37 °C. Strains harboring the plasmid derivatives were grown under antibiotic pressure on agar plates containing kanamycin at 1500 µg/ml. A single colony was inoculated into BHI or BHI-kanamycin (1500 µg/ml) for overnight cultures (18 h).
(§5) MIC determination was performed using a standard broth microdilution technique in duplicate from independent cultures. Overnight cultures were inoculated into 3 ml of BHI or BHI-kanamycin (1500 µg/ml) broth in a dilution of 1:100 and incubated until an OD600 of ~0.5 was reached. Cultures were diluted 1:1000 and inoculated into the 96-well plates with the corresponding antibiotics to be tested. Plates were incubated at 37 °C for 20 h and read by eye. […]

[2] = test system: E. faecium D344SRF pCWR624 (PBP5 plasmid); assay: Disk diffusion assay, pCWR624; format: cell-based, Enterococcus faecium; settings: strain pCWR624; 37 °C, 24 h; n=3
Protocol: as §3, §4
(§6) Antibiotic disks used were manufactured by BD BBL^TM. Disk diffusion assays were performed according to the Clinical and Laboratory Standards Institute (CLSI) guidance. Overnight cultures were inoculated into 3 ml of BHI or BHI-kanamycin (1500 µg/ml) broth with a dilution of 1:100 and incubated until an OD600 of ~0.5 was reached. […] The plates were incubated at 37 °C and the zones of inhibition were measured after 24 h. […]

[3] = test system: E. faecium D344SRF pCWR624Δpbp5 (empty plasmid); assay: MIC by broth microdilution, pCWR624Δpbp5; format: cell-based, Enterococcus faecium; settings: strain pCWR624Δpbp5; 37 °C, 20 h; n=3
Protocol: as §3, §4, §5

[4] = test system: E. faecium D344SRF pCWR624Δpbp5 (empty plasmid); assay: Disk diffusion assay, pCWR624Δpbp5; format: cell-based, Enterococcus faecium; settings: strain pCWR624Δpbp5; 37 °C, 24 h; n=3
Protocol: as §3, §4, §6

[5] = test system: E. faecium D344SRF pCWR624Δpbp5_pbp5_V3; assay: MIC by broth microdilution, pbp5_V3; format: cell-based, Enterococcus faecium; settings: strain pbp5_V3 (loop 625-631); 37 °C, 20 h; n=3
Protocol: as §3, §4, §5

With D-Lac-L-Ala-D-iGln-L-Lys(D-iAsn) [SP2] the “STD amplification factor, ref to SP1 (fraction)” value (PBP5:ceftaroline complex; 1H DLacβ) was 0.3324, the “STD, ref to SP1 (percent)” value (PBP5:ceftaroline complex; 1H DLacβ) was 33.2419 and the STD amplification factor (PBP5:ceftaroline complex; 1H DLacβ) was 8.945. For the same compound, the “STD amplification factor, ref to SP1 (fraction)” value (PBP5:ceftaroline complex; 1H DQ2β (first listed)) was 0.6862, the “STD, ref to SP1 (percent)” value (PBP5:ceftaroline complex; 1H DQ2β (first listed)) was 68.622 and the STD amplification factor (PBP5:ceftaroline complex; 1H DQ2β (first listed)) was 18.4651. The “STD amplification factor, ref to SP1 (fraction)” value (PBP5:ceftaroline complex; 1H DQ2β (second listed)) was 0.9243, the “STD, ref to SP1 (percent)” value (PBP5:ceftaroline complex; 1H DQ2β (second listed)) was 92.4275 and the STD amplification factor (PBP5:ceftaroline complex; 1H DQ2β (second listed)) was 24.8707. For the same compound, the “STD amplification factor, ref to SP1 (fraction)” value (PBP5:ceftaroline complex; 1H DQ2γ) was 0.3051, the “STD, ref to SP1 (percent)” value (PBP5:ceftaroline complex; 1H DQ2γ) was 30.515 and the STD amplification factor (PBP5:ceftaroline complex; 1H DQ2γ) was 8.211. The “STD amplification factor, ref to SP1 (fraction)” value (PBP5:ceftaroline complex; 1H K3α) was 0.5095, the “STD, ref to SP1 (percent)” value (PBP5:ceftaroline complex; 1H K3α) was 50.9537 and the STD amplification factor (PBP5:ceftaroline complex; 1H K3α) was 13.7108. For the same compound, the “STD amplification factor, ref to SP1 (fraction)” value (PBP5:ceftaroline complex; 1H K3β) was 1.007, the “STD, ref to SP1 (percent)” value (PBP5:ceftaroline complex; 1H K3β) was 100.738 and the STD amplification factor (PBP5:ceftaroline complex; 1H K3β) was 27.1069. For the same compound, the “STD amplification factor, ref to SP1 (fraction)” value (PBP5:ceftaroline complex; 1H K3γ) was 0.5588, the “STD, ref to SP1 (percent)” value (PBP5:ceftaroline complex; 1H K3γ) was 55.8765 and the STD amplification factor (PBP5:ceftaroline complex; 1H K3γ) was 15.0355. For the same compound, the “STD amplification factor, ref to SP1 (fraction)” value (PBP5:ceftaroline complex; 1H K3δ) was 0.7209, the “STD, ref to SP1 (percent)” value (PBP5:ceftaroline complex; 1H K3δ) was 72.0884 and the STD amplification factor (PBP5:ceftaroline complex; 1H K3δ) was 19.3978. For the same compound, the “STD amplification factor, ref to SP1 (fraction)” value (PBP5:ceftaroline complex; 1H K3ε) was 0.1435, the “STD, ref to SP1 (percent)” value (PBP5:ceftaroline complex; 1H K3ε) was 14.3544 and the STD amplification factor (PBP5:ceftaroline complex; 1H K3ε) was 3.863. For the same compound, the “STD amplification factor, ref to SP1 (fraction)” value (PBP5:ceftaroline complex; 1H LA1α) was 0.3824, the “STD, ref to SP1 (percent)” value (PBP5:ceftaroline complex; 1H LA1α) was 38.2438 and the STD amplification factor (PBP5:ceftaroline complex; 1H LA1α) was 10.2908. For the same compound, the “STD amplification factor, ref to SP1 (fraction)” value (PBP5:ceftaroline complex; 1H LA1β) was 0.3611, the “STD, ref to SP1 (percent)” value (PBP5:ceftaroline complex; 1H LA1β) was 36.1111 and the STD amplification factor (PBP5:ceftaroline complex; 1H LA1β) was 9.717. For the same compound, the “STD amplification factor, ref to SP1 (fraction)” value (PBP5:ceftaroline complex; 1H iNα,DQ2α) was 0.2432, the “STD, ref to SP1 (percent)” value (PBP5:ceftaroline complex; 1H iNα,DQ2α) was 24.3189 and the STD amplification factor (PBP5:ceftaroline complex; 1H iNα,DQ2α) was 6.544. For the same compound, the “STD amplification factor, ref to SP1 (fraction)” value (PBP5:ceftaroline complex; 1H iNβ) was 0.3137, the “STD, ref to SP1 (percent)” value (PBP5:ceftaroline complex; 1H iNβ) was 31.3676 and the STD amplification factor (PBP5:ceftaroline complex; 1H iNβ) was 8.441. The “STD % to SP1” value (PBP5-S422A; 1H DLacβ) was 42.7391%, the “STD amplification factor as fraction of highest SP1:PBP5 value” (from here on “STD amplification factor as fraction”) (PBP5-S422A; 1H DLacβ) was 0.4274 and the “STD amplification factor, 2000” value (PBP5-S422A; 1H DLacβ) was 11.5004. For the same compound, the “STD % to SP1” value (PBP5-S422A; 1H DQ2β (first listed)) was 84.4303%, the “STD amplification factor as fraction” value (PBP5-S422A; 1H DQ2β (first listed)) was 0.8443 and the “STD amplification factor, 2000” value (PBP5-S422A; 1H DQ2β (first listed)) was 22.7188. For the same compound, the “STD % to SP1” value (PBP5-S422A; 1H DQ2β (second listed)) was 106.599%, the “STD amplification factor as fraction” value (PBP5-S422A; 1H DQ2β (second listed)) was 1.066 and the “STD amplification factor, 2000” value (PBP5-S422A; 1H DQ2β (second listed)) was 28.6841. The “STD % to SP1” value (PBP5-S422A; 1H DQ2γ) was 33.2164%, the “STD amplification factor as fraction” value (PBP5-S422A; 1H DQ2γ) was 0.3322 and the “STD amplification factor, 2000” value (PBP5-S422A; 1H DQ2γ) was 8.938. The “STD % to SP1” value (PBP5-S422A; 1H K3α) was 52.4105%, the “STD amplification factor as fraction” value (PBP5-S422A; 1H K3α) was 0.5241 and the “STD amplification factor, 2000” value (PBP5-S422A; 1H K3α) was 14.1028. For the same compound, the “STD % to SP1” value (PBP5-S422A; 1H K3β) was 115.403%, the “STD amplification factor as fraction” value (PBP5-S422A; 1H K3β) was 1.154 and the “STD amplification factor, 2000” value (PBP5-S422A; 1H K3β) was 31.053. For the same compound, the “STD % to SP1” value (PBP5-S422A; 1H K3γ) was 71.5712%, the “STD amplification factor as fraction” value (PBP5-S422A; 1H K3γ) was 0.7157 and the “STD amplification factor, 2000” value (PBP5-S422A; 1H K3γ) was 19.2587. The “STD % to SP1” value (PBP5-S422A; 1H K3δ) was 86.8848%, the “STD amplification factor as fraction” value (PBP5-S422A; 1H K3δ) was 0.8688 and the “STD amplification factor, 2000” value (PBP5-S422A; 1H K3δ) was 23.3793. The “STD % to SP1” value (PBP5-S422A; 1H K3ε) was 15.5454%, the “STD amplification factor as fraction” value (PBP5-S422A; 1H K3ε) was 0.1555 and the “STD amplification factor, 2000” value (PBP5-S422A; 1H K3ε) was 4.183. For the same compound, the “STD % to SP1” value (PBP5-S422A; 1H LA1α) was 31.0506%, the “STD amplification factor as fraction” value (PBP5-S422A; 1H LA1α) was 0.3105 and the “STD amplification factor, 2000” value (PBP5-S422A; 1H LA1α) was 8.355. For the same compound, the “STD % to SP1” value (PBP5-S422A; 1H LA1β) was 44.3762%, the “STD amplification factor as fraction” value (PBP5-S422A; 1H LA1β) was 0.4438 and the “STD amplification factor, 2000” value (PBP5-S422A; 1H LA1β) was 11.9409. The “STD % to SP1” value (PBP5-S422A; 1H iNα,DQ2α) was 24.4286%, the “STD amplification factor as fraction” value (PBP5-S422A; 1H iNα,DQ2α) was 0.2443 and the “STD amplification factor, 2000” value (PBP5-S422A; 1H iNα,DQ2α) was 6.573. The “STD % to SP1” value (PBP5-S422A; 1H iNβ) was 38.4337%, the “STD amplification factor as fraction” value (PBP5-S422A; 1H iNβ) was 0.3843 and the “STD amplification factor, 2000” value (PBP5-S422A; 1H iNβ) was 10.3419.
For `CO/N=C(\C(=O)N[C@@H]1C(=O)N2C(C(=O)O)=C(CSc3nc(=O)c(=O)[nH]n3C)CS[C@H]12)c1csc(N)n1` [Ceftriaxone, ceftriaxone], the “MIC (µg/ml) [Range]” value [1] was > 3200 [3200->3200] µg/ml, the “Zone Size (mm) [Range]” value [2] was 0 [0] mm and the “MIC (µg/ml) [Range]” value [3] was 50 [25-100] µg/ml. The “Zone Size (mm) [Range]” value [4] was 24 [22-28] mm and the “MIC (µg/ml) [Range]” value [5] was 25 [25] µg/ml.
